Data set [1] deals with Type IV PDE isolated from bovine tracheal smooth muscle (PDE IV). In words: Type IV PDE activity (hydrolysis of [^3 H]-cyclic AMP). Format: biochemical. The note with it: cyclic AMP 0.2 mM, 2.5% dimethyl sulfoxide, * = disubstituted analog. From the text: In addition, the PDE IV inhibitory compounds of the present invention may be examined for their PDE IV inhibitory effects via the techniques set forth in the following examples, wherein the ability of the compounds to inhibit PDE IV isolated from bovine tracheal smooth muscle is set forth.
The Type IV PDE is isolated from bovine tracheal smooth muscle using a procedure similar to that previously described by Silver, P. J. et al., Eur. J. Pharmacol. 150:85,1988.(1). Briefly, smooth muscle from bovine trachea is minced and homogenized using a polytron in 10 volumes of an extraction buffer containing 10 mM Tris-acetate (pH 7.5), 2 mM magnesium chloride, 1 mM dithiothreitol and 2,000 units/ml of aprotinin. This and all subsequent procedures are performed at 0-4° C. The homogenate is sonicated and then centrifuged at 48,000×g for 30 minutes. The resulting supernatant is applied to a DEAE Trisacryl M column previously equilibrated with sodium acetate and dithiothreitol. After applications of the sample, the column is washed with sodium acetate/ dithiothreitol, after which the different forms of PDE are eluted from the column using a linear Tris-HCl/NaCl gradient. Fractions containing Type IV PDE are collected, dialyzed and concentrated to 14% of the original volume. The concentrated fractions are diluted to 50% with ethylene glycol and stored at -20° C.
Enzyme activity is assessed by measuring the hydrolysis of [^3 H]-cyclic AMP, as described by Thompson, W. J. et al., Adv. Cyclic Nucleotide Res. 10:69, 1979. The cyclic AMP concentration used in this assay is 0.2 mM, which approximates the Km value. Protein concentration is adjusted to ensure that no more than 15% of the available substrate is hydrolyzed during the incubation period.
All test compounds are dissolved in dimethyl sulfoxide (final concentration of 2.5%). This concentration of dimethyl sulfoxide inhibits enzyme activity by approximately 10%.

Another data set relates to PDE IV. The settings on record: in words, background; cited from earlier work.
The subject of data set [2] is mast cells, basophils, monocytes and eosinophils. The note with it: in-vitro, in words; cited from earlier work.
The test system of data set [3] is neutrophils and eosinophils. The note with it: in-vitro, in words; cited from earlier work.
The subject of the next data set is lymphocytes. The note with it: in-vitro, in words; cited from earlier work.
For data set [4], the system named is bronchial and coronary dilation. The note with it: in words; cited from earlier work.
The next data set deals with PDE III. The note with it: in words, background; cited from earlier work.
For data set [5] the following is noted: in words; cited from earlier work.

Molecules are shown by their SMILES.

In general, IC50 refers to the midpoint of a concentration-inhibition curve. A low value points to higher potency. The compound `CCn1c(=O)n(C)c(=S)c2[nH]c(C(C)C)nc21` [3-ethyl-1-methyl-8-isopropyl-6-thioxanthine] had an IC50 in data set [1] of 1 µM.

For the compound `COc1ccc(C2CNC(=O)C2)cc1OC1CCCC1` (stereo not shown) [Rolipram], the “PDE IV inhibition” value with PDE IV is listed as “selectively inhibit the PDE IV enzyme”. Besides, the “inhibition of mediator synthesis/release” value in data set [2] was “shown to inhibit”. Besides, in data set [3], the “inhibition of respiratory burst, chemotaxis and degranulation” value is “shown to inhibit”. Besides, the “inhibition of mitogen-dependent growth and differentiation” value with lymphocytes is on record as “shown to inhibit”.

In the case of `Cc1nc2c([nH]1)c(=S)n(C)c(=O)n2C` [1,3,8-trimethyl-6-thioxanthine], the “bronchial and coronary dilator activity” value in data set [4] was “having bronchial and coronary dilator activity”.

Take `CCCn1c(=S)c2[nH]c(C(C)C)nc2n(CCC)c1=O` [8-isopropyl-1,3-dipropyl-6-thioxanthine, 1,3-Dipropyl-8-isopropyl-6-thioxanthine]: in data set [1], 1.67 µM corresponded to half-maximal inhibition (IC50).

Regarding `CCCn1c(=S)c2[nH]c(C3CC3)nc2n(CCC)c1=O` [8-Cyclopropyl-1,3-dipropyl-6-thioxanthine], the 50% inhibitory concentration (IC50) in data set [1] was determined as 2.97 µM.

For `CCn1c(=S)c2[nH]c(C(C)C)nc2n(CC)c1=O` [1,3-diethyl-8-isopropyl-6-thioxanthine, 1,3-Diethyl-8-isopropyl-6-thioxanthine], the IC50 in data set [1] worked out at 1.2 µM.

In data set [1], `CCCn1c(=O)[nH]c(=S)c2[nH]c(C3CC3)nc21` [8-cyclopropyl-3-propyl-6-thioxanthine] showed an IC50 of 4.47 µM.

As to `Cn1c(=O)c2[nH]cnc2n(C)c1=O` [Theophylline], in the data set on PDE IV, the “PDE IV inhibition” value is “inhibits both PDE III and PDE IV”. Further, the “PDE III inhibition” value in the data set with PDE III was “inhibits both PDE III and PDE IV”. In data set [5], the therapeutic index entry is listed as “narrow therapeutic index”.

Regarding `CCn1c(=O)[nH]c(=S)c2[nH]c(C(C)C)nc21` [3-ethyl-8-isopropyl-6-thioxanthine], in data set [1], it took 4.6 µM to reach half-maximal inhibition (IC50).

For `CCCn1c(=O)[nH]c(=S)c2[nH]c(C(C)C)nc21` [8-isopropyl-3-propyl-6-thioxanthine], the IC50 in data set [1] came out at 3.3 µM.

As for `CCCCOc1cc(CC2CNC(=O)N2)ccc1OC` (stereo not shown) [Ro-201724], in data set [2], the “inhibition of mediator synthesis/release” value is listed as “shown to inhibit”. The “inhibition of respiratory burst, chemotaxis and degranulation” value in data set [3] was “shown to inhibit”. Further, in the data set with lymphocytes, the “inhibition of mitogen-dependent growth and differentiation” value is reported as “shown to inhibit”.

As for `CCCn1c(=O)[nH]c(=S)c2[nH]c(CC)nc21` [3-propyl-8-ethyl-6-thioxanthine], in data set [1], 18.4 µM corresponded to half-maximal inhibition (IC50).

Regarding `CCc1nc2c([nH]1)c(=S)n(C)c(=O)n2C` [1,3-dimethyl-8-ethyl-6-thioxanthine], the “bronchial and coronary dilator activity” value in data set [4] is “having bronchial and coronary dilator activity”.

Take `CCC(C)Cn1c(=O)[nH]c(=S)c2[nH]c(C3CC3)nc21` (stereo not shown) [8-cyclopropyl-3-(2-methyl-butyl)-6-thioxanthine]: in data set [1], the midpoint of inhibition, the IC50, lay at 3.83 µM.

As to `CCC(C)Cn1c(=O)n(CC)c(=S)c2[nH]c(C3CC3)nc21` (stereo not shown) [8-Cyclopropyl-1-ethyl-3-(2-methyl-butyl)-6-thioxanthine], the IC50 in data set [1] is 1.18 µM.

Source of the values: patent publication US5977119A, “Trisubstituted thioxanthines” (Euro-Celtique, S.A., priority 1997, dated 1999).
